This note sets out measurements from BindingDB's records for doi:10.7270/Q23F4N3R (Burnham Center For Chemical Genomics, 2011).

Molecules are shown by their SMILES. Bounds are passed on as bounds.

The first experiment can be described thus: HK1 enzyme inhibitors – biochemical, selectivity assay for HKDC1 inhibitor project, dose response (AID 504763).
Settings: not given
As for `Cc1ccc(Nc2c3[nH]cccc-3c(=O)n2-c2ccccc2C)cc1C` [SMR000028201], the 50% inhibitory concentration (IC50) was more than 80 µM. The compound `CC(C)c1nc2oc3c(O)ncnc3c2c2c1COC(C)(C)C2` [MLS000779024] displayed an IC50 of 5.26 µM. Same read-out and setting: in the case of `O=C1C=CC(CN=Nc2ccc([N+](=O)[O-])cn2)C(O)=C1` (stereo not drawn) [SMR001527138] it was more than 80 µM. On to `O=c1c2ccccc2nc2n1CCC2` [2,3-dihydropyrrolo[2,1-b]quinazolin-9(1H)-one], for which the concentration for half-maximal inhibition (IC50) is more than 80 µM. Consider `O=C1C=C(Nc2ccccc2C(=O)O)c2ccccc2C1=O` [SMR000123743], for which the IC50 was 16.9 µM. Same read-out and setting: under `O=C(O)c1cc(N2N=C(C(F)(F)F)/C(=C/C=C/c3ccco3)C2=O)ccc1Cl` [2-chloro-5-[4-[3-(2-furyl)-2-propenylidene]-5-oxo-3-(trifluoromethyl)-4,5-dihydro-1H-pyrazol-1-yl]benzoic acid] stands more than 80 µM.

Regarding `Cc1[nH]c2c(=O)c3c(c(=O)c=2[nH]c1C)C1C=CC3CC1` [MLS002701599], the midpoint of inhibition, the IC50, lay at 2.08 µM. Compound `CC(=O)NC1C(=O)N(CCN2CCOCC2)c2ccc(Br)cc21` (stereo not drawn) [MLS001215987] had a concentration for half-maximal inhibition (IC50) of more than 80 µM. On the same count and under the same terms, in the case of `O=C1C=C(N2CCCCC2)c2ccccc2C1=O` [4-piperidin-1-ylnaphthalene-1,2-dione] it was 2.39 µM. The same measure, in the same setting: in the case of `Cc1cccc(-n2c3nc(=O)[nH]c(=O)c-3cc3cc([N+](=O)[O-])ccc32)c1` it was more than 80 µM. Still for that read-out and setting: in the case of `O=C1C(Cl)=C(N2CCC(C(=O)O)CC2)C(=O)c2ccccc21` [1-(3-chloro-1,4-dioxo-2-naphthalenyl)-4-piperidinecarboxylic acid] it was 13.5 µM. As to `C=CCN1C=C2C(=O)C(C)(OC(=O)CCC(=O)OC)C(=O)C(Br)=C2C=C1c1ccc(OC)cc1` (stereo not drawn), the IC50 is more than 80 µM.

`CC(Nc1cc(O)c2cccnc2c1O)C(=O)c1ccccc1` (stereo not drawn) yielded an IC50 of 75.1 µM. `Cc1ccc(C)c(S(=O)(=O)Nc2cc(SCC(=O)O)c(O)c3ccccc23)c1` [2-[4-[(2,5-dimethylphenyl)sulfonylamino]-1-hydroxynaphthalen-2-yl]sulfanylacetic acid] registered an IC50 of 16.4 µM. In turn, `O=C(CSc1nnc(CCCN2C(=O)c3cccc4cccc(c34)C2=O)n1-c1ccccc1)N1CCCCC1` displayed a concentration for half-maximal inhibition (IC50) of 9.74 µM. On the same count and under the same terms, under `COC(=O)c1ccccc1NC1=CC(=NS(=O)(=O)c2ccc(C(=O)O)cc2)c2ccccc2C1=O` stands 5.77 µM. Same read-out and setting: under `COC1=CC(/C=C(\C#N)c2nc3ccc(C)cc3[nH]2)C=C([N+](=O)[O-])C1=O` (stereo not drawn) [(2Z,3E)-3-(3-methoxy-5-nitro-4-oxocyclohexa-2,5-dien-1-ylidene)-2-(5-methyl-1,3-dihydrobenzimidazol-2-ylidene)propanenitrile] stands 18 µM; under `O=C(C1=C(c2ccccc2)C(=O)c2ccccc2C1=O)c1ccccc1` [2-benzoyl-3-phenylnaphthoquinone], 7.24 µM; under `CCOC(=O)c1ccc(NC(=O)CSc2n[nH]c(-c3ccncc3)n2)cc1`, 10.5 µM. The same measure, in the same setting: in the case of `CCc1ccc2c(c1)C(NC(C)=O)C(=O)N2CCN1CCOCC1` (stereo not drawn) [MLS001215951] it was more than 80 µM; in that of `O=C1c2ccccc2-c2onc3ccc(Oc4ccccc4)c1c23` [MLS000525578], more than 80 µM; in that of `O=C1C=CC(=O)c2c(O)c(CO)c(CO)c(O)c21` [5,8-dihydroxy-6,7-bis(hydroxymethyl)naphthalene-1,4-dione], more than 80 µM. `CCOC(=O)CSc1nc2ccc(C)cc2n2cnnc12` [MLS000999625] returned an IC50 of 12.9 µM. Same read-out and setting: in the case of `CCOC(=O)c1ccc(NC(=O)CSc2ccc(-c3ccccn3)nn2)cc1` [ethyl 4-[2-(6-pyridin-2-ylpyridazin-3-yl)sulfanylethanoylamino]benzoate] it was 2.15 µM; in that of `COC(=O)c1cc(C)nc2c1C(=O)C(=O)C=C2N1CCOCC1` [MLS001208989], 16.6 µM; in that of `O=C1C(=O)c2c(C(=O)c3ccccc3)coc2-c2ccccc21` [3-(phenylcarbonyl)benzo[g][1]benzofuran-4,5-dione], more than 80 µM. The same measure, in the same setting: in the case of `COc1ccc(S(=O)(=O)Nc2ccc(O)c3ccccc23)cc1` [4-methoxy-N-(4-oxidanylnaphthalen-1-yl)benzenesulfonamide] it was more than 80 µM. The compound `CCCc1nc2oc3c(NCCOCCO)ncnc3c2c2c1COC(C)(C)C2` [SMR000048002] displayed an IC50 of 11.1 µM.

`COC1=C(Br)C(=O)c2ncccc2C1=O` [7-bromo-6-methoxyquinoline-5,8-dione] had a half-inhibitory concentration (IC50) of 4.89 µM. On the same count and under the same terms, under `CCC(c1ccccc1)C(CC)c1cc(O)c(O)c(O)c1` (stereo not drawn) [5-(4-phenylhexan-3-yl)benzene-1,2,3-triol] stands more than 80 µM; under `COCc1cc(C2C(C(=O)c3ccco3)C(=O)C(=O)N2CCOCCO)ccc1O` (stereo not drawn) [3-(furan-2-carbonyl)-4-hydroxy-1-[2-(2-hydroxyethoxy)ethyl]-2-[4-hydroxy-3-(methoxymethyl)phenyl]-2H-pyrrol-5-one], more than 80 µM; under `O=C(O)c1ccccc1-c1c2cc(I)c(=O)c(I)c-2oc2c(I)c(O)c(I)cc12` [sodium;2-(2,4,5,7-tetraiodo-3-oxido-6-oxo-9-xanthenyl)benzoate], 47.2 µM. Compound `Cc1cc(C=C2C(=O)NC(=O)N(c3ccc(Cl)cc3)C2=O)c(C)n1-c1sc2c(c1C#N)CCCC2` [SMR000211212] displayed a concentration for half-maximal inhibition (IC50) of more than 80 µM. Same read-out and setting: in the case of `O=C(O)c1ccc(S(=O)(=O)N=C2C=C(Nc3ccccc3F)C(=O)c3ccccc32)cc1` it was 6.02 µM; in that of `CCOc1ccc(-n2c(C)cc(C(=O)CCl)c2C)cc1` [2-chloranyl-1-[1-(4-ethoxyphenyl)-2,5-dimethyl-pyrrol-3-yl]ethanone], more than 80 µM; in that of `Cc1ccc2cc(CCNC(=O)c3ccc(S(=O)(=O)N4CCCCC4)cc3)c(O)nc2c1`, 6.04 µM. The same measure, in the same setting: under `Cc1cc(C)n2nc(SCc3nnc(SCc4ccccc4C)s3)nc2n1` [5,7-dimethyl-2-[({5-[(2-methylbenzyl)sulfanyl]-1,3,4-thiadiazol-2-yl}methyl)sulfanyl][1,2,4]triazolo[1,5-a]pyrimidine] stands 3.71 µM. Still for that read-out and setting: under `CCCCC(CC)CNC(=N)NC(=N)NCCCCCCNC(=N)NC(=N)NCC(CC)CCCC` (stereo not drawn) [MLS002153995] stands 38.7 µM; under `COC1=CC(=O)c2c(ccc3ncnc(N)c23)C1=O` [MLS002701780], 1.83 µM. Take `Cc1ccc(SC2=C(N(C)C)C(=O)c3ccccc3C2=O)cc1` [2-(dimethylamino)-3-[(4-methylphenyl)thio]naphthalene-1,4-dione]: the IC50 turned out to be 19.7 µM.

As for `O=C(COC(=O)c1n[nH]c2ccccc12)c1cccc(Br)c1` [[2-(3-bromophenyl)-2-oxoethyl] 1H-indazole-3-carboxylate], the IC50 was more than 80 µM. Still for that read-out and setting: under `NS(=O)(=O)c1ccc(N=Nc2c(=O)[nH]n3c(=O)c4c([nH]c23)CCCC4)cc1` [SMR000231775] stands 12.4 µM. Still for that read-out and setting: under `O=S(=O)(O)c1ccc(O)c2cc(Nc3ccccc3)ccc12` stands more than 80 µM.

Take `CCCC(=O)NC1=C(Cl)C(=O)c2ccccc2C1=O`: the 50% inhibitory concentration (IC50) is 3.06 µM.

Compound `Cc1cccc2c1=NC(=O)C=2NNC(=O)c1ccc(NS(=O)(=O)c2cccs2)cc1` [SMR001246714] had a half-inhibitory concentration (IC50) of 52.6 µM. On the same count and under the same terms, under `CCOC(=O)C1=C(c2ccc(OC)cc2)C(=O)c2ccccc2C1=O` [SMR000185036] stands 2.44 µM.

The compound `CCOc1ccc(/C=C2/SC(=S)N(CCC(=O)Nc3ccc(C(=O)O)cc3)C2=O)cc1` [4-[3-[(5E)-5-[(4-ethoxyphenyl)methylidene]-4-oxo-2-sulfanylidene-1,3-thiazolidin-3-yl]propanoylamino]benzoic acid] registered a 50% inhibitory concentration (IC50) of more than 80 µM. For `Oc1nc2ccccc2n2c(-c3ccccc3)nnc12` [SMR000162081], half-maximal inhibition (IC50) required 19 µM. Same read-out and setting: in the case of `CCN(CC)C(=O)c1ccc(C(=O)c2c(C)cc(C)cc2C)cc1` [N,N-diethyl-4-[oxo-(2,4,6-trimethylphenyl)methyl]benzamide] it was more than 80 µM; in that of `CCc1ccc(S(=O)(=O)N=C2C=C(Nc3cccc(C(=O)O)c3)C(=O)c3ccccc32)cc1` [SMR000620248], 5.83 µM. Still for that read-out and setting: in the case of `CC(C)c1ccc(S(=O)(=O)N=C2C=C(Sc3nnc[nH]3)C(=O)c3ccccc32)cc1` [4-isopropyl-N-[(1Z)-4-oxo-3-(1H-1,2,4-triazol-3-ylthio)naphthalen-1(4H)-ylidene]benzenesulfonamide] it was 5.87 µM; in that of `Cn1c2ccccc2c(=O)c2c(=O)n(-c3ccc(F)cc3)c(-c3cccs3)nc21` [SMR000439524], 2.5 µM; in that of `COc1ccc(-n2c(C)cc(C(=O)CCl)c2C)cc1` [2-chloranyl-1-[1-(4-methoxyphenyl)-2,5-dimethyl-pyrrol-3-yl]ethanone], more than 80 µM. Same read-out and setting: in the case of `O=C1C=CC(=O)C(C2=C3C(=O)N(CCc4ccccc4)CC(=O)N3CCC2)=C1` [SMR000226463] it was 6.85 µM; in that of `O=C1NC(=S)N(c2ccc(F)cc2)C(=O)C1=Cc1ccoc1` [SMR000270574], more than 80 µM. Compound `N#Cc1ccc(CSc2nnc(NC(=O)c3ccc4ncsc4c3)s2)cc1` [MLS000334839] returned an IC50 of more than 80 µM.

Still in this experiment, the particulars now being: inactive by the depositor's call.
Regarding `CN(C)c1ccc(Cc2cc3c(O)ccc(O)c3cc(Cc3ccc(N(C)C)cc3)c2=O)cc1` [SMR001565845], half-maximal inhibition (IC50) required 73.6 µM. On the same count and under the same terms, under `O=S(=O)(Nc1cc(Sc2nc[nH]n2)c(O)c2ccccc12)c1ccccc1` [N-[4-oxidanyl-3-(1H-1,2,4-triazol-5-ylsulfanyl)naphthalen-1-yl]benzenesulfonamide] stands 57.8 µM; under `COC(=O)c1ccc(NC(=O)CSc2n[nH]c(-c3ccncc3)n2)cc1`, 22.5 µM. With `CC(C)Nc1nnc(SCC(=O)Nc2ccc3c(c2)C(=O)c2ccccc2C3=O)s1` [MLS000390413], the IC50 turned out to be 22.3 µM. Still for that read-out and setting: in the case of `Cc1ccc(S(=O)(=O)Nc2c(O)ccc3ccccc23)cc1` [4-methyl-N-(2-oxidanylnaphthalen-1-yl)benzenesulfonamide] it was 27.4 µM; in that of `COC(=O)c1ccccc1NC1=CC(=NS(=O)(=O)c2cccs2)c2ccccc2C1=O` [methyl 2-[[(4E)-1-oxidanylidene-4-thiophen-2-ylsulfonylimino-naphthalen-2-yl]amino]benzoate], 57 µM. Regarding `Cc1oc2c(c1C(=O)c1ccc(Cl)cc1)C(=O)C(=O)c1ccccc1-2` [3-(4-Chloro-benzoyl)-2-methyl-naphtho[1,2-b]furan-4,5-dione], half-maximal inhibition (IC50) was put at 40 µM.

By IC50 is commonly meant the concentration that gives 50% inhibition.
